Data reported in ChEMBL document CHEMBL4265943, “Design and synthesis of potent dual inhibitors of JAK2 and HDAC based on fusing the pharmacophores of XL019 and vorinostat” (Eur J Med Chem, 2018).
Activity calls are given as the source filed them. No cut-off for these calls is given here.

How the values were obtained:
MCF7 [1] = assay: Induction of apoptosis in human MCF7 cells assessed as live cells at 1.64 uM after 72 hrs by Annexin V-FITC/propidium iodide staining based flow cytometry (reference value: 95.05%); format: functional
[2] = target: T1, Protein deacetylase HDAC6 (Homo sapiens, UniProt Q9UBN7); assay: Inhibition of HDAC6 (unknown origin) using Arg-His-Lys-Lys(Ac) as substrate preincubated with enzyme followed by substrate addition for 2 hrs and measured for 1.5 hrs at 15 mins time interval by fluorescence assay
T1 sequence (Q9UBN7 whole entry): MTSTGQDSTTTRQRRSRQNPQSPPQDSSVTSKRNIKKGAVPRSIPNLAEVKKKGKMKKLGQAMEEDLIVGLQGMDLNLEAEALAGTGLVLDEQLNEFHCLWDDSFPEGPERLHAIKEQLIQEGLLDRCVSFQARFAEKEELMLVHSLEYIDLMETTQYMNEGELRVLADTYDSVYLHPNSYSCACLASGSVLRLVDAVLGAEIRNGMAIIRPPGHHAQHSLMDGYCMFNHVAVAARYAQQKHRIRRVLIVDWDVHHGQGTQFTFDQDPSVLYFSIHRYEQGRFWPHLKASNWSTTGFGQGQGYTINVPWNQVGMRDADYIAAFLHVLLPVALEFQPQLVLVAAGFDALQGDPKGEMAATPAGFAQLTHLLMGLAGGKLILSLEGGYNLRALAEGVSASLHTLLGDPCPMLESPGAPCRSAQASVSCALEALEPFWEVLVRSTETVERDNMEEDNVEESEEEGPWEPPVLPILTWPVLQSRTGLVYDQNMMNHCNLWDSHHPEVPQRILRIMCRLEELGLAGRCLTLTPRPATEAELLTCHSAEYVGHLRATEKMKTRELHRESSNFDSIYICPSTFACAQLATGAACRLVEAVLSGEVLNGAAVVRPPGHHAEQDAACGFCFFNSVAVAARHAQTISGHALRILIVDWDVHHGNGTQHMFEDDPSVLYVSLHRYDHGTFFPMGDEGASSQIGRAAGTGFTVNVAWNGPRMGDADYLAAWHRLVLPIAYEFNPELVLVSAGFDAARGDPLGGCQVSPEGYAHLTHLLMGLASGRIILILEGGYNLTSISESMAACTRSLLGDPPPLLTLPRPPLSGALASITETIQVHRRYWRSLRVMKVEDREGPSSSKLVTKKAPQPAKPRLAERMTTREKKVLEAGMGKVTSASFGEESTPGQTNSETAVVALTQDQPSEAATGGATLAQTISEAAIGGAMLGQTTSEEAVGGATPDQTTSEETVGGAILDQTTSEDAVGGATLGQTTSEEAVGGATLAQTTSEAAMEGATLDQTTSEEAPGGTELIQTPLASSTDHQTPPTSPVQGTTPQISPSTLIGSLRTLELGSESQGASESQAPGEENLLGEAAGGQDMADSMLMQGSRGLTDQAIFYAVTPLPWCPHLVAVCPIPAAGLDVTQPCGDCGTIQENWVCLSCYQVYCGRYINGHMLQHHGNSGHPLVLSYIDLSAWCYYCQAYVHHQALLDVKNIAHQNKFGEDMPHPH

HCT-116 [3] = assay: Induction of apoptosis in human HCT116 cells assessed as necrotic cells at 0.99 uM after 72 hrs by Annexin V-FITC/propidium iodide staining based flow cytometry (reference value: 1.54%); format: functional
MDA-MB-231 [4] = assay: Induction of apoptosis in human MDA-MB-231 cells assessed as live cells at 0.85 uM after 72 hrs by Annexin V-FITC/propidium iodide staining based flow cytometry (reference value: 90.98%); format: functional
MCF7 [5] = assay: Induction of apoptosis in human MCF7 cells assessed as necrotic cells at 1.64 uM after 72 hrs by Annexin V-FITC/propidium iodide staining based flow cytometry (reference value: 2.17%); format: functional
[6] = Antiproliferative activity against human AC10 cells after 72 hrs by MTT assay; format: cell-based
HCT-116 [7] = assay: Induction of apoptosis in human HCT116 cells assessed as late apoptotic cells at 0.99 uM after 72 hrs by Annexin V-FITC/propidium iodide staining based flow cytometry (reference value: 1.45%); format: functional
MDA-MB-231 [8] = assay: Induction of apoptosis in human MDA-MB-231 cells assessed as necrotic cells at 0.85 uM after 72 hrs by Annexin V-FITC/propidium iodide staining based flow cytometry (reference value: 5.45%); format: functional
HCT-116 [9] = assay: Antiproliferative activity against human HCT116 cells after 72 hrs by MTT assay; format: functional, cell-based; details: HCT-116, 72 h
MDA-MB-231 [10] = assay: Induction of apoptosis in human MDA-MB-231 cells assessed as late apoptotic cells at 0.85 uM after 72 hrs by Annexin V-FITC/propidium iodide staining based flow cytometry (reference value: 2.12%); format: functional
MDA-MB-231 [11] = assay: Antiproliferative activity against human MDA-MB-231 cells after 72 hrs by MTT assay; format: functional, cell-based; details: MDA-MB-231, 72 h
PC-3 [12] = assay: Antiproliferative activity against human PC3 cells after 72 hrs by MTT assay; format: functional, cell-based; details: PC-3, 72 h
PC-3 [13] = assay: Induction of apoptosis in human PC3 cells assessed as necrotic cells at 1.07 uM after 72 hrs by Annexin V-FITC/propidium iodide staining based flow cytometry (reference value: 0.66%); format: functional
MCF7 [14] = assay: Induction of apoptosis in human MCF7 cells assessed as late apoptotic cells at 1.64 uM after 72 hrs by Annexin V-FITC/propidium iodide staining based flow cytometry (reference value: 1.59%); format: functional
[15] = Selectivity index, ratio of CC50 for mouse TAMH cells to IC50 for human MDA-MB-231 cells; format: toxicity; details: TAMH cells (CC50) and MDA-MB-231 cells (IC50)
[16] = Selectivity index, ratio of CC50 for mouse TAMH cells to IC50 for human MCF7 cells; format: toxicity; details: TAMH cells (CC50) and MCF7 cells (IC50)
MCF7 [17] = assay: Antiproliferative activity against human MCF7 cells after 72 hrs by MTT assay; format: functional, cell-based; details: MCF7, 72 h
[18] = Selectivity index, ratio of CC50 for human AC10 cells to IC50 for human MCF7 cells; format: toxicity; details: AC10 cells (CC50) and MCF7 cells (IC50)
[19] = target: T2, Tyrosine-protein kinase JAK2 (Homo sapiens, UniProt O60674); assay: Inhibition of human JAK2 using poly(Glu:Tyr)(4:1) as substrate preincubated for 20 mins followed by [gamma33P]ATP addition measured after 120 mins by ion exchange filter paper method
T2 sequence (O60674 whole entry): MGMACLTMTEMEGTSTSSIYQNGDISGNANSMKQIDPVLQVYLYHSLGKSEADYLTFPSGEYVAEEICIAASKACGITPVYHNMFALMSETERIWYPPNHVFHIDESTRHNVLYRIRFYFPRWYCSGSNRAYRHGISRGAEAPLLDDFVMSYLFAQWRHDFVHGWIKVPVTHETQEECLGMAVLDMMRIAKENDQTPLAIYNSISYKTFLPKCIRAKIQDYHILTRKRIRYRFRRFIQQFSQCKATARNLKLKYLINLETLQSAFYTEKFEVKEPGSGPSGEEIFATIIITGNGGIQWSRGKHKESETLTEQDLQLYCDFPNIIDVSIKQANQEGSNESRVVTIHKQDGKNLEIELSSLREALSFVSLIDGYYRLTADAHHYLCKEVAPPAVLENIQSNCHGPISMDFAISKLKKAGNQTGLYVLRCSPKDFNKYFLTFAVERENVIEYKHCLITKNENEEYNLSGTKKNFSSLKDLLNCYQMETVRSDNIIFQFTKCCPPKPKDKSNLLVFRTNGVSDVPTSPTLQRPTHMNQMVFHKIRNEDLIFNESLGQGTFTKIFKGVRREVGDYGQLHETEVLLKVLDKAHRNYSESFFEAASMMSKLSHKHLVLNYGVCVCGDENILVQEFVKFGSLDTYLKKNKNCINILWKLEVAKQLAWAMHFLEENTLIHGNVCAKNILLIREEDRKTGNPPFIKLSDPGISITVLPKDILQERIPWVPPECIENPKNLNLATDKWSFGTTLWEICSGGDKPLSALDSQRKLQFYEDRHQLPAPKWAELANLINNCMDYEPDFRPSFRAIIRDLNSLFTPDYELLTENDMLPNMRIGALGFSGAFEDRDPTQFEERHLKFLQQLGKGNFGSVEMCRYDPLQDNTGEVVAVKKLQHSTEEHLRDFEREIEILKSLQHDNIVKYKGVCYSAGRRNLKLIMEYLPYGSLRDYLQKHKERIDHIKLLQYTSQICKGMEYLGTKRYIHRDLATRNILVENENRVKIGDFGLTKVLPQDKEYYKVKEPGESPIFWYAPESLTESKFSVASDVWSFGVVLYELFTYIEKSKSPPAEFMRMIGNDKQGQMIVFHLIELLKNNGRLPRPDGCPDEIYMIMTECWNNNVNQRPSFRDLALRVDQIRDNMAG

Histone deacetylase 1 = Histone deacetylase 1 (Homo sapiens, UniProt Q13547); assay: Inhibition of HDAC1 (unknown origin) using Arg-His-Lys-Lys(Ac) as substrate preincubated with enzyme followed by substrate addition for 2 hrs and measured for 1.5 hrs at 15 mins time interval by fluorescence assay
Chain of Histone deacetylase 1 (Q13547 whole entry): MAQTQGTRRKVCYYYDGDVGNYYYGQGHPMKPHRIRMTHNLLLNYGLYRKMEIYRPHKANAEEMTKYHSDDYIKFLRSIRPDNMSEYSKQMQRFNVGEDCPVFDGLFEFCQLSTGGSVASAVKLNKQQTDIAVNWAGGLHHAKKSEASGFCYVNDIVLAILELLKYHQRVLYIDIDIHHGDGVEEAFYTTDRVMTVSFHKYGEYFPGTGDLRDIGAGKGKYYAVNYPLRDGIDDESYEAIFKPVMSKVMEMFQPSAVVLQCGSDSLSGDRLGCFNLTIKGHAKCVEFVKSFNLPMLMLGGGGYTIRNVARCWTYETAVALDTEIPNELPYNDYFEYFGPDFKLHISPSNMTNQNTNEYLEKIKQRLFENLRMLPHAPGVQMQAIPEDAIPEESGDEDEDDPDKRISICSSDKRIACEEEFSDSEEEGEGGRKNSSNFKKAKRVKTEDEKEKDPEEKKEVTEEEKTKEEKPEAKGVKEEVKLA

[20] = Selectivity index, ratio of CC50 for mouse TAMH cells to IC50 for human PC3 cells; format: toxicity; details: TAMH cells (CC50) and PC3 cells (IC50)
MDA-MB-231 [21] = assay: Induction of apoptosis in human MDA-MB-231 cells assessed as early apoptotic cells at 0.85 uM after 72 hrs by Annexin V-FITC/propidium iodide staining based flow cytometry (reference value: 1.45%); format: functional
[22] = Selectivity index, ratio of CC50 for human AC10 cells to IC50 for human MDA-MB-231 cells; format: toxicity; details: AC10 cells (CC50) and MDA-MB-231 cells (IC50)
HCT-116 [23] = assay: Induction of apoptosis in human HCT116 cells assessed as live cells at 0.99 uM after 72 hrs by Annexin V-FITC/propidium iodide staining based flow cytometry (reference value: 95.7%); format: functional
PC-3 [24] = assay: Induction of apoptosis in human PC3 cells assessed as late apoptotic cells at 1.07 uM after 72 hrs by Annexin V-FITC/propidium iodide staining based flow cytometry (reference value: 1.01%); format: functional
[25] = Selectivity index, ratio of CC50 for human AC10 cells to IC50 for human PC3 cells; format: toxicity; details: AC10 cells (CC50) and PC3 cells (IC50)
MCF7 [26] = assay: Induction of apoptosis in human MCF7 cells assessed as early apoptotic cells at 1.64 uM after 72 hrs by Annexin V-FITC/propidium iodide staining based flow cytometry (reference value: 1.19%); format: functional
PC-3 [27] = assay: Induction of apoptosis in human PC3 cells assessed as live cells at 1.07 uM after 72 hrs by Annexin V-FITC/propidium iodide staining based flow cytometry (reference value: 96.36%); format: functional
HCT-116 [28] = assay: Induction of apoptosis in human HCT116 cells assessed as early apoptotic cells at 0.99 uM after 72 hrs by Annexin V-FITC/propidium iodide staining based flow cytometry (reference value: 1.31%); format: functional
PC-3 [29] = assay: Induction of apoptosis in human PC3 cells assessed as early apoptotic cells at 1.07 uM after 72 hrs by Annexin V-FITC/propidium iodide staining based flow cytometry (reference value: […]%); format: functional
[30] = Antiproliferative activity against mouse TAMH cells after 72 hrs by MTT assay; format: cell-based
[31] = target: Histone deacetylase 1/2/3 (Homo sapiens) (UniProt Q13547+O15379+Q92769); assay: Inhibition of HDAC1/HDAC2/HDAC3 in human HEL 92.1.7 cells assessed as increase in acetylated […] level at 1 uM after 1 hr by immunoblot analysis; format: cell-based
HEL 92.1.7 = assay: cells; format: functional, cell-based; details: Homo sapiens, HEL 92.1.7, 72 h
Description: Antiproliferative activity against human HEL 92.1.7 cells after 72 hrs by MTT assay

[32] = Selectivity index, ratio of CC50 for mouse TAMH cells to IC50 for human XG6 cells; format: toxicity; details: TAMH cells (CC50) and XG6 cells (IC50)
[33] = Antiproliferative activity against human XG6 cells after 72 hrs by MTT assay; format: functional, cell-based; details: XG6, 72 h
[34] = Selectivity index, ratio of CC50 for human AC10 cells to IC50 for human KMS-12-BM cells; format: toxicity; details: AC10 cells (CC50) and KMS-12-BM cells (IC50)
Homo sapiens = organism: Homo sapiens; assay: Selectivity ratio of IC50 for HDAC1 (unknown origin) to IC50 for HDAC6 (unknown origin)
[35] = target: T2, Tyrosine-protein kinase JAK2; assay: Inhibition of JAK2 in human HeLa cells assessed as increase in JAK2 phosphorylation at 15 to 20 uM after 1 hr by immunoblot analysis; format: cell-based
[36] = target: T2, Tyrosine-protein kinase JAK2; assay: Inhibition of JAK2 in human HeLa cells assessed as reduction in STAT5 phosphorylation at 15 to 20 uM after 1 hr by immunoblot analysis; format: cell-based
[37] = Selectivity index, ratio of CC50 for human AC10 cells to IC50 for human XG6 cells; format: toxicity; details: AC10 cells (CC50) and XG6 cells (IC50)
[38] = Selectivity index, ratio of CC50 for mouse TAMH cells to IC50 for human KMS-12-BM cells; format: toxicity; details: TAMH cells (CC50) and KMS-12-BM cells (IC50)
[39] = target: T3, Protein deacetylase HDAC6 (Homo sapiens) (UniProt Q9UBN7); assay: Inhibition of HDAC6 in human HEL 92.1.7 cells assessed as increase in acetylated tubulin level at 1 uM after 1 hr by immunoblot analysis; format: cell-based
T3 sequence (whole entry): T1 sequence (Q9UBN7 whole entry)

KMS-12-BM = assay: Antiproliferative activity against human KMS-12-BM cells after 72 hrs by MTT assay; format: functional, cell-based

CN1CCN(c2ccc(Nc3nccc(-c4ccc(NC(=O)CCCCCCC(=O)NO)cc4)n3)cc2)CC1
Activity (MCF7 [1]): 88.21% | IC50 [2]: 3.1 nM | Activity (HCT-116 [3]): 4.69% | Activity (MDA-MB-231 [4]): 13.2% | Activity (MCF7 [5]): 1.88% | CC50 at 72 h [6]: 3310 nM | Activity (HCT-116 [7]): 6.43% | Activity (MDA-MB-231 [8]): 6.84% | IC50 (HCT-116 [9]): 990 nM | Activity (MDA-MB-231 [10]): 40.56% | IC50 (MDA-MB-231 [11]): 910 nM | IC50 (PC-3 [12]): 1020 nM | Activity (PC-3 [13]): 1.54% | Activity (MCF7 [14]): 3.37% | selectivity ratio [15]: 5.98 | selectivity ratio [16]: 3.38 | IC50 (MCF7 [17]): 1610 nM | selectivity ratio [18]: 2.06 | IC50 [19]: 4.6 nM | IC50 (Histone deacetylase 1): 77 nM | selectivity ratio [20]: 5.33 | Activity (MDA-MB-231 [21]): 39.4% | selectivity ratio [22]: 3.64 | Activity (HCT-116 [23]): 83.01% | Activity (PC-3 [24]): 19.83% | selectivity ratio [25]: 3.25 | Activity (MCF7 [26]): 6.54% | Activity (PC-3 [27]): 5.35% | Activity (HCT-116 [28]): 5.87% | Activity (PC-3 [29]): 73.28% | CC50 at 72 h [30]: 5440 nM

CC(=O)Nc1ccc(-c2ccnc(Nc3ccc(NC(=O)CCCCCCC(=O)NO)cc3)n2)cc1
inhibition [31]: Active | IC50 [2]: 0.1 nM | CC50 at 72 h [6]: 19500 nM | IC50 (HEL 92.1.7): 2530 nM | selectivity ratio [32]: 3.95 | IC50 [33]: 3170 nM | selectivity ratio [34]: 16.8 | IC50 (HCT-116 [9]): 1970 nM | IC50 (MDA-MB-231 [11]): 1540 nM | IC50 (PC-3 [12]): 3840 nM | IC50 (MCF7 [17]): 1090 nM | IC50 [19]: 0.9 nM | Ratio IC50 (Homo sapiens): > 7000 | IC50 (Histone deacetylase 1): 774 nM | inhibition [35]: Active | inhibition [36]: Active | selectivity ratio [37]: 6.16 | selectivity ratio [38]: 10.8 | inhibition [39]: Active | CC50 at 72 h [30]: 12500 nM | IC50 (KMS-12-BM): 1160 nM
